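Growth conditions: 96-well plates. Treatment: test compound, 48 hours, 5 concentrations. Analysis: linear interpolation between bracketing concentrations; unreached endpoints set to highest concentration. GI50 = concentration required for 50% inhibition of growth. TGI: concentration producing complete growth inhibition.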
Assays:
Assay in all cases: inhibition of tumour cell growth, NCI panel, 48 h
SN12C renal = test system: SN12C renal
CCRF-CEM leukemia = test system: CCRF-CEM leukemia
MDA-MB-435 = test system: MDA-MB-435
786-0 renal = test system: 786-0 renal
MDA-MB-231 breast = test system: MDA-MB-231 breast
ACHN renal = test system: ACHN renal
OVCAR-8 ovarian = test system: OVCAR-8 ovarian
IGROV1 ovarian = test system: IGROV1 ovarian
K-562 leukemia = test system: K-562 leukemia
NCI-H23 lung = test system: NCI-H23 lung

SMILES	GI50 (SN12C renal) [µM]	TGI (SN12C renal) [µM]	GI50 (CCRF-CEM leukemia) [µM]	TGI (CCRF-CEM leukemia) [µM]	GI50 (MDA-MB-435) [µM]	TGI (MDA-MB-435) [µM]	GI50 (786-0 renal) [µM]	TGI (786-0 renal) [µM]	GI50 (MDA-MB-231 breast) [µM]	TGI (MDA-MB-231 breast) [µM]	GI50 (ACHN renal) [µM]	TGI (ACHN renal) [µM]	GI50 (OVCAR-8 ovarian) [µM]	TGI (OVCAR-8 ovarian) [µM]	GI50 (IGROV1 ovarian) [µM]	TGI (IGROV1 ovarian) [µM]	GI50 (K-562 leukemia) [µM]	TGI (K-562 leukemia) [µM]	GI50 (NCI-H23 lung) [µM]	TGI (NCI-H23 lung) [µM]
CN(Cc1ccc(Cl)cc1)c1ccc(CO)c(Cl)c1	8.55	22.6	15.1	> 66.3	13.5	27.9	3.82	17	11	29.9	5.83	23.6	7.05	27.4	0.365	2.24	3.79	> 65.7	5.98	23
CCOc1ccccc1NC(=O)c1cc2ccccc2cc1O	2.64	9.24	2.58	32.9	2.38	7.08	3.34	9.13	2.02	4.19	2.96	10.3	3.16	11.3	4.66	38.7	3.28	14.1	2.59	9.45
CCOC(=O)/C(=N\OC)C(O)C(F)(F)F (stereo not drawn)		> 100		> 100		> 100		> 100		> 100		> 100		> 100		> 100		> 100		> 100
N=C(N)c1ccc(OCCOCCOc2ccc(C(=N)N)cc2)cc1	58.8	> 100	1	> 100	84.8	> 100	> 100	> 100	> 100	> 100	> 100	> 100	31.4	> 100	> 100	> 100	63.3	> 100	78	> 100
COc1ccc2c(c1)=C(C=C1C=CN(O)C=C1)C(=O)N=2	22.1	59.2	25.3	> 79.1	35	> 89.6	31	> 92.3	23.6	> 100	23.5	> 100	29.9	99.7	16.2	> 94.4	3.55	> 100	23.8	72.3
N#Cc1ncc(-c2ccc(C(F)(F)F)cc2)c(NCc2cc(C(F)(F)F)cc(C(F)(F)F)c2)n1	3.54	> 100	2.26	49.8	3.42	> 100	6.39	96.3	3.17	12.6	3.62	> 100	3.69	> 100	5.95	> 100	3.74	> 100	3.22	23.8
CC(C)Nc1ccc(Nc2ccccc2)cc1	27.1	> 100	12.5	> 100	15.4	46	17.8	> 100	8.32	35.6	3.31	15	11.6	26.5	14.2	37.3	15.6	52.5	14.2	65.3
CCC[CH2][Sn]([CH2]CCC)([O]C(=O)c1cc(F)ccc1F)[O][Sn]([CH2]CCC)([CH2]CCC)[O]C(=O)c1cc(F)ccc1F	0.314	1.27	0.0113	2.7	0.446	1.67	0.158	0.405	0.436	1.63	0.251	0.738	0.374	1.57	1.03	2.33	0.0372	6.22	0.0702	0.311
CC(C)(O)C#Cc1ccc(/C=C/C(=O)c2ccccc2)s1	18.1	32.1	13.6	64.9	12.6	26.4	14.8	28.8	16.7	32.3	17	30.7	15.9	29.9	14.7	27.8	16.5	56.3	16.9	34.7
Cc1cc2cc3cc(C)c(N(C)C)cc3[n+](C)c2cc1N(C)C	3.91	> 100	12.2	> 100	3.1	14.9	5.1	18.8	3.17	9	3.69	> 100	2.72	14.7	5.04	> 100	3.14	> 100	2.77	31.2
Cc1nc(-c2ccccc2)c(Cc2ccccc2O)c(=O)[nH]1		> 100		> 100		> 100		> 100		> 100		> 100		> 100		> 100		> 100		> 100
CCCc1cc(O)c2c3c(c(=O)oc2c1)CN(C)CC3	> 100	> 100	69.1	> 100	43.5	> 100	61.7	> 100	35	> 100	> 100	> 100	> 100	> 100	> 100	> 100	31.8	> 100	98.9	> 100
CC(=O)Nc1ccc(/C=C/C(=O)c2ccccc2)cc1	12.9	29.5	3.36	16.6	17.4	50.5	23.9	53.4	17.7	44.6	13.1	29.6	12.3	30.4	9.44	30.6	3.28	> 100	17.5	43.2
CCCCOc1ccc(NC(=O)n2nc(N)c3ccccc32)cc1	23.4	85.9	0.0755	4.68	22.8	> 65.1	19.7	48.4	14	41.5	22.7	> 89.4	30.3	> 85.9	33	> 100	11.5	50.4	22.6	57.5
CC(=O)N1N=C(c2ccc(Nc3nc(Nc4ccc(Cl)cc4)nc(Nc4ccc(Cl)cc4)n3)cc2)CC1c1ccc([N+](=O)[O-])cc1 (stereo not drawn)	13.4	> 100	2.92	> 32.2	4.59	36	3.8	26.3	10.2	> 92	5.49	> 100	8.54	> 100	6.51	> 65.6	2.65	28.7	11.1	> 100
N#Cc1cccc(OCc2nc(N)nc(N)c2-c2ccc(Cl)c(Cl)c2)c1	2.23	> 100	2.03	> 100	0.486	> 100	0.513	> 100	6.13	> 100	0.896	> 100	0.765	> 100	1.46	> 100	0.384	> 100	2.42	> 100
O=S(=O)(Cc1ccc(Cl)cc1Cl)c1ccc(Cl)cc1	1.5	> 100	0.505	> 100	0.13	0.671	1.84	> 100	2.38	> 61.6	1.04	> 100	1.22	> 100	0.445	> 21.9	0.303	> 100	0.878	> 100
COc1cc2c(cc1O)-c1c(cnn1-c1ccc([N+](=O)[O-])cc1)CCC2		14.7		30.6		48.6		> 100		33.2		14.6		50.3		18.7		> 100		41.9
O=C1CC(c2cccc(O)c2)C2(C(=O)NC(=S)NC2=O)C(c2cccc(O)c2)C1 (stereo not drawn)	> 100	> 100	> 100	> 100	> 100	> 100	> 100	> 100	> 100	> 100	> 100	> 100	> 100	> 100	> 100	> 100	> 100	> 100	> 100	> 100
N#C/C(=N\Nc1ccc(Cl)cc1)C(=O)Nc1cc(-c2ccccc2)nn1-c1ccccc1	2.44	> 100	2.27	> 100	2.79	> 100	4.05	> 100	2.86	> 100	2.84	> 100	2.96	> 100	4.12	> 100	1.72	> 100	2.65	> 100
C/C=C/C/C=C/CCC(=O)[C@H]1O[C@H]1C(N)=O	11.5	25.3	6.02	62.3	11.6	25	14.8	36.1	13.1	26.8		26.9	17.7	> 74.3	13.5	33.3	19	> 86.8		29.9
COc1cc(C(=O)N2N=C(c3ccc(S(C)(=O)=O)cc3)CC2c2ccco2)cc(OC)c1OC (stereo not drawn)	12.3	> 100	2.5	> 25.4	1.27	7.27	8.51	> 100	11.2	> 100	5.76	> 100	20.2	> 100	5.4	> 100	4.81	> 100	15.2	> 100

Reference: PubChem BioAssay (NCI)
